Measured values reported in patent US6642392B1 (priority 1997, dated 2003).
Where two headings read alike, the source gives them in different places.

Tests used:
Assay type in all cases: in vivo
Phytophthora infestans = conditions: for Test D disease control rating: tomato late blight; for Test D disease control rating (100 = 100% disease control, 0 = no disease control): tomato seedlings sprayed to run-off, inoculated the following day, rating relative to controls, unmarked compounds (standard test rate)
Botrytis cinerea = test: Test E: gray mold, preventive spray on cucumber seedlings; conditions: for Test E disease control rating: gray mold on cucumber; for Test E disease control rating (100 = 100% disease control, 0 = no disease control): cucumber seedlings sprayed to run-off, inoculated the following day, rating relative to controls, unmarked compounds (standard test rate)
Method in brief: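 Compounds in 3% acetone were suspended with 250 ppm Trem 014 surfactant and sprayed to run-off on cucumber seedlings. B. cinerea spores were inoculated next day, then 48 h saturated humidity at 20° C and 5 days at 20° C. Disease control rated 0–100% versus controls.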

[1] = system: Eiysiphe graminis f. sp. tritici; test: Test A: wheat powdery mildew, preventive spray on wheat seedlings; conditions: for Test A disease control rating: wheat powdery mildew; for Test A disease control rating (100 = 100% disease control, 0 = no disease control): wheat seedlings sprayed to run-off, inoculated the following day, rating relative to controls, unmarked compounds (standard test rate)
Method in brief: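 Compounds (3% acetone, 250 ppm Trem 014) sprayed to run-off on wheat seedlings, inoculated next day with spore dust. Incubated 7 days at 20° C before disease rating, 0–100% control relative to untreated controls.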

Pyricularia oryzae = conditions: for Test C disease control rating: rice blast; for Test C disease control rating (100 = 100% disease control, 0 = no disease control): rice seedlings sprayed to run-off, inoculated the following day, rating relative to controls, unmarked compounds (standard test rate)
Puccinia recondita = test: Test B: wheat leaf rust, preventive spray on wheat seedlings; conditions: for Test B disease control rating: wheat leaf rust; for Test B disease control rating (100 = 100% disease control, 0 = no disease control): wheat seedlings sprayed to run-off, inoculated the following day, rating relative to controls, unmarked compounds (standard test rate)
Method in brief: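 Wheat seedlings were sprayed to run-off with compound (3% acetone, 250 ppm Trem 014), then inoculated with P. recondita spores the next day. They were held 24 h saturated at 20 °C, then 6 days at 20 °C. Ratings are 0–100% disease control versus controls.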

[2] = 100 = 100% disease control, 0 = no control, unmarked entries (standard test concentration)
[3] = 100 = 100% disease control, 0 = no control relative to controls, unmarked entries (standard test concentration)

SMILES: CCC1(C(=O)NC(C)COc2cccc(I)c2)C(C)C1(Cl)Cl (mixture of isomers) [compound 88]
- Test D disease control rating (Phytophthora infestans; tested at 40 ppm): 0%
- Test E disease control rating (Botrytis cinerea; tested at 40 ppm): 0%
- Test A disease control rating ([1]; tested at 40 ppm): 52%
- Test C disease control rating (Pyricularia oryzae; tested at 40 ppm): 0%
- Test B disease control rating (Puccinia recondita; tested at 40 ppm): 0%

SMILES: CC(COc1cccc(Br)c1)NC(=O)C(C#N)C(C)(C)C (mixture of isomers) [9a]
- Test D disease control rating (Phytophthora infestans; [2]): 0%
- Test E disease control rating (Botrytis cinerea; [2]): 0%
- Test A disease control rating [1, 3]: 0%
- Test C disease control rating (Pyricularia oryzae; [2]): 53%
- Test B disease control rating (Puccinia recondita; [2]): 0%

SMILES: CCC1(C(=O)NC(C)COn2cc(Br)cc2C#N)C(C)C1(Cl)Cl (mixture of isomers) [compound 137]
- Test D disease control rating (Phytophthora infestans; [2]): 0%
- Test E disease control rating (Botrytis cinerea; [2]): 0%
- Test A disease control rating [1, 3]: 0%
- Test C disease control rating (Pyricularia oryzae; [2]): 53%
- Test B disease control rating (Puccinia recondita; [2]): 0%

SMILES: CCC1(C(=O)NC(C)COc2cccc(F)c2C#N)C(C)C1(Cl)Cl (mixture of isomers) [compound 130]
- Test D disease control rating (Phytophthora infestans; [2]): 2%
- Test E disease control rating (Botrytis cinerea; [2]): 0%
- Test A disease control rating [1, 3]: 0%
- Test C disease control rating (Pyricularia oryzae; [2]): 32%
- Test B disease control rating (Puccinia recondita; [2]): 0%

SMILES: CC(COc1ccccc1)NC(=O)C(C#N)C(C)C(C)(C)C (mixture of isomers) [compound 56]
- Test D disease control rating (Phytophthora infestans; tested at 40 ppm): 0%
- Test E disease control rating (Botrytis cinerea; tested at 40 ppm): 0%
- Test A disease control rating ([1]; tested at 40 ppm): 74%
- Test C disease control rating (Pyricularia oryzae; tested at 40 ppm): 85%
- Test B disease control rating (Puccinia recondita; tested at 40 ppm): 0%

SMILES: CCC1(C(=O)NCCCc2ccccc2)C(C)C1(Cl)Cl (stereo not shown) [compound 154]
- Test D disease control rating (Phytophthora infestans; [2]): 0%
- Test E disease control rating (Botrytis cinerea; [2]): 0%
- Test A disease control rating [1, 3]: 52%
- Test C disease control rating (Pyricularia oryzae; [2]): 52%
- Test B disease control rating (Puccinia recondita; [2]): 0%

SMILES: CCC1(C(=O)NCCCn2c(C)cc(C)c2C#N)C(C)C1(Cl)Cl (stereo not shown) [compound 150]
- Test D disease control rating (Phytophthora infestans; [2]): 0%
- Test E disease control rating (Botrytis cinerea; [2]): 87%
- Test A disease control rating [1, 3]: 0%
- Test C disease control rating (Pyricularia oryzae; [2]): 60%
- Test B disease control rating (Puccinia recondita; [2]): 0%

SMILES: CCC1(C(=O)NC(C)COc2cccc(Cl)c2)C(C)C1(Cl)Cl (mixture of isomers) [82b]
- Test D disease control rating (Phytophthora infestans; [2]): 15%
- Test E disease control rating (Botrytis cinerea; [2]): 0%
- Test A disease control rating [1, 3]: 31%
- Test C disease control rating (Pyricularia oryzae; [2]): 97%
- Test B disease control rating (Puccinia recondita; [2]): 0%

SMILES: CC(COc1cc(F)ccc1OC(F)F)NC(=O)C(C#N)C(C)(C)C (mixture of isomers) [compound 292]
- Test D disease control rating (100 = 100% disease control, 0 = no disease control) (Phytophthora infestans): 46%
- Test E disease control rating (100 = 100% disease control, 0 = no disease control) (Botrytis cinerea): 0%
- Test A disease control rating (100 = 100% disease control, 0 = no disease control) [1]: 0%
- Test C disease control rating (100 = 100% disease control, 0 = no disease control) (Pyricularia oryzae): 99%
- Test B disease control rating (100 = 100% disease control, 0 = no disease control) (Puccinia recondita): 0%

SMILES: C[C@H](COc1cccc(F)c1F)NC(=O)C(C#N)C(C)(C)C (single isomer, unassigned) [26b]
- Test D disease control rating (Phytophthora infestans; [2]): 81%
- Test E disease control rating (Botrytis cinerea; [2]): 0%
- Test A disease control rating [1, 3]: 38%
- Test C disease control rating (Pyricularia oryzae; [2]): 100%
- Test B disease control rating (Puccinia recondita; [2]): 68%

SMILES: CC(C)(C)C(C#N)C(=O)NC/C=C/c1ccccc1 (racemic) [compound 167]
- Test D disease control rating (Phytophthora infestans; [2]): 23%
- Test E disease control rating (Botrytis cinerea; [2]): 0%
- Test A disease control rating [1, 3]: 0%
- Test C disease control rating (Pyricularia oryzae; [2]): 74%
- Test B disease control rating (Puccinia recondita; [2]): 0%

SMILES: CC(COc1cccc(Cl)c1)NC(=O)C(C#N)C(C)(C)C (single isomer, unassigned) [6c]
- Test D disease control rating (Phytophthora infestans; [2]): 9%
- Test E disease control rating (Botrytis cinerea; [2]): 0%
- Test A disease control rating [1, 3]: 0%
- Test C disease control rating (Pyricularia oryzae; [2]): 97%
- Test B disease control rating (Puccinia recondita; [2]): 0%

SMILES: CC(COc1cc(F)ccc1C#N)NC(=O)C(C#N)C(C)(C)C (mixture of isomers) [compound 41]
- Test D disease control rating (Phytophthora infestans; [2]): 66%
- Test E disease control rating (Botrytis cinerea; [2]): 47%
- Test A disease control rating [1, 3]: 62%
- Test C disease control rating (Pyricularia oryzae; [2]): 97%
- Test B disease control rating (Puccinia recondita; [2]): 0%

SMILES: C[C@H](COc1cc(F)ccc1Cl)NC(=O)C(C#N)C(C)(C)C (single isomer, unassigned) [191b]
- Test D disease control rating (Phytophthora infestans; [2]): 47%
- Test E disease control rating (Botrytis cinerea; [2]): 55%
- Test A disease control rating [1, 3]: 0%
- Test C disease control rating (Pyricularia oryzae; [2]): 100%
- Test B disease control rating (Puccinia recondita; [2]): 0%

SMILES: C[C@H](COc1c(Cl)ccc(Cl)c1Cl)NC(=O)C(C#N)C(C)(C)C (single isomer, unassigned) [171b]
- Test D disease control rating (Phytophthora infestans; [2]): 0%
- Test E disease control rating (Botrytis cinerea; [2]): 58%
- Test A disease control rating [1, 3]: 91%
- Test C disease control rating (Pyricularia oryzae; [2]): 53%
- Test B disease control rating (Puccinia recondita; [2]): 0%

SMILES: CC(COc1ccc(Cl)cc1)NC(=O)C(C#N)C(C)(C)C (single isomer, unassigned) [7b]
- Test D disease control rating (Phytophthora infestans; [2]): 89%
- Test E disease control rating (Botrytis cinerea; [2]): 47%
- Test A disease control rating [1, 3]: 77%
- Test C disease control rating (Pyricularia oryzae; [2]): 74%
- Test B disease control rating (Puccinia recondita; [2]): 0%

SMILES: C[C@H](COc1cc(F)cc(F)c1)NC(=O)C(C#N)C(C)(C)C (single isomer, unassigned) [184b]
- Test D disease control rating (Phytophthora infestans; [2]): 9%
- Test E disease control rating (Botrytis cinerea; [2]): 45%
- Test A disease control rating [1, 3]: 62%
- Test C disease control rating (Pyricularia oryzae; [2]): 74%
- Test B disease control rating (Puccinia recondita; [2]): 0%

SMILES: C=CC(C)(C)C(C#N)C(=O)NC(C)COc1cc(F)ccc1OC(F)F (mixture of isomers) [compound 294]
- Test D disease control rating (100 = 100% disease control, 0 = no disease control) (Phytophthora infestans): 24%
- Test E disease control rating (100 = 100% disease control, 0 = no disease control) (Botrytis cinerea): 0%
- Test A disease control rating (100 = 100% disease control, 0 = no disease control) [1]: 0%
- Test C disease control rating (100 = 100% disease control, 0 = no disease control) (Pyricularia oryzae): 99%
- Test B disease control rating (100 = 100% disease control, 0 = no disease control) (Puccinia recondita): 0%

SMILES: C[C@H](COc1ccc(Cl)cc1Cl)NC(=O)C(C#N)C(C)(C)C (single isomer, unassigned) [32b]
- Test D disease control rating (Phytophthora infestans; [2]): 23%
- Test E disease control rating (Botrytis cinerea; [2]): 0%
- Test A disease control rating [1, 3]: 0%
- Test C disease control rating (Pyricularia oryzae; [2]): 94%
- Test B disease control rating (Puccinia recondita; [2]): 27%

SMILES: CCC1(C(=O)NCC(C)=Cc2cc(Cl)ccc2Cl)C(C)C1(Cl)Cl (stereo not shown) [compound 270]
- Test D disease control rating (100 = 100% disease control, 0 = no disease control) (Phytophthora infestans): 96%
- Test E disease control rating (100 = 100% disease control, 0 = no disease control) (Botrytis cinerea): 0%
- Test A disease control rating (100 = 100% disease control, 0 = no disease control) [1]: 77%
- Test C disease control rating (100 = 100% disease control, 0 = no disease control) (Pyricularia oryzae): 91%
- Test B disease control rating (100 = 100% disease control, 0 = no disease control) (Puccinia recondita): 0%

SMILES: CC(COc1cccc(Cl)c1C#N)NC(=O)C(C#N)C(C)(C)C (mixture of isomers) [compound 42]
- Test D disease control rating (Phytophthora infestans; [2]): 2%
- Test E disease control rating (Botrytis cinerea; [2]): 0%
- Test A disease control rating [1, 3]: 0%
- Test C disease control rating (Pyricularia oryzae; [2]): 53%
- Test B disease control rating (Puccinia recondita; [2]): 0%

SMILES: CC(COc1ccccc1)NC(=O)C(C#N)C(C)(C)C (single isomer, unassigned) [1b]
- Test D disease control rating (Phytophthora infestans; [2]): 0%
- Test E disease control rating (Botrytis cinerea; [2]): 0%
- Test A disease control rating [1, 3]: 34%
- Test C disease control rating (Pyricularia oryzae; [2]): 74%
- Test B disease control rating (Puccinia recondita; [2]): 11%

SMILES: CC(NC(=O)C(C#N)C(C)(C)C)C(Oc1ccccc1C#N)c1ccccc1 (mixture of isomers) [compound 291]
- Test D disease control rating (100 = 100% disease control, 0 = no disease control) (Phytophthora infestans): 0%
- Test E disease control rating (100 = 100% disease control, 0 = no disease control) (Botrytis cinerea): 0%
- Test A disease control rating (100 = 100% disease control, 0 = no disease control) [1]: 0%
- Test C disease control rating (100 = 100% disease control, 0 = no disease control) (Pyricularia oryzae): 90%
- Test B disease control rating (100 = 100% disease control, 0 = no disease control) (Puccinia recondita): 0%
